The target in one test is T1, recombinant human NK3 receptor (Homo sapiens, UniProt P29371).
T1 construct: expressed in transfected cells; host or cells: HEK293 cells, transient expression; membranes
T1 sequence (P29371 1-465): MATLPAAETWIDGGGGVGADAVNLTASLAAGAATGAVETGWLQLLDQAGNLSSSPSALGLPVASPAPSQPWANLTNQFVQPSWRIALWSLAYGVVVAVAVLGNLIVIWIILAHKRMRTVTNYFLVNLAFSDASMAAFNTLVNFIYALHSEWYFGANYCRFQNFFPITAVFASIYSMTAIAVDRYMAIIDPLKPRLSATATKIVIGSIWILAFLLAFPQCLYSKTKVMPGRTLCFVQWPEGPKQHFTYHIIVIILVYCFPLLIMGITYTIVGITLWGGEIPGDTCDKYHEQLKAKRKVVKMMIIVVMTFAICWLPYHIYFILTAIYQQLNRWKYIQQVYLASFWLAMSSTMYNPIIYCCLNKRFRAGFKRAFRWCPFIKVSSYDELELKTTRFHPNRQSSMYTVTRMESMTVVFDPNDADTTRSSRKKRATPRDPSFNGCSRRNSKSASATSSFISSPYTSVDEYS
Briefly: [3H]SR142801 competition binding assay.
Details: not given
What is called Ki is the dissociation constant of the complex between target and ligand, obtained from inhibition or displacement. For `CN(C(=O)OCCC(C)(C)O)[C@H]1CN(C(=O)C2CCN(C(=O)C3(C)CC3)CC2)C[C@@H]1c1ccc(Cl)c(Cl)c1` (racemic) [Example 98, rac-{(3R,4S)-4-(3,4-Dichloro-phenyl)-1-[1-(1-methyl-cyclopropanecarbonyl)-piperidine-4-carbonyl]-pyrrolidin-3-yl}-methyl-carbamic acid 3-hydroxy-3-methyl-butyl ester], the Ki came out at 48 nM. Same read-out and setting: for `CN(C(=O)OCC(C)(C)C)[C@H]1CN(C(=O)C2CCN(C(=O)C3(C)CC3)CC2)C[C@@H]1c1ccc(Cl)c(Cl)c1` (racemic) [Example 22, rac-{(3R,4S)-4-(3,4-Dichloro-phenyl)-1-[1-(1-methyl-cyclopropanecarbonyl)-piperidine-4-carbonyl]-pyrrolidin-3-yl}-methyl-carbamic acid 2,2-dimethyl-propyl ester] the value was 16.9 nM; for `COc1ccc(OC(=O)N(C)[C@H]2CN(C(=O)C3CCN(CC4CC4)CC3)C[C@@H]2c2ccc(Cl)c(Cl)c2)cc1` [Example 20, [(3R,4S)-1-(1-Cyclopropylmethyl-piperidine-4-carbonyl)-4-(3,4-dichloro-phenyl)-pyrrolidin-3-yl]-methyl-carbamic acid 4-methoxy-phenyl ester], 72.4 nM. Same read-out and setting: for `COC1CC(C(=O)N2CCC(C(=O)N3C[C@@H](N(C)C(=O)Oc4ccc(F)cc4)[C@H](c4ccc(Cl)c(Cl)c4)C3)CC2)C1` (stereo partly drawn) [Example 269, {(3S,4R)-4-(3,4-Dichloro-phenyl)-1-[1-(3-methoxy-cyclobutanecarbonyl)-piperidine-4-carbonyl]-pyrrolidin-3-yl}-methyl-carbamic acid 4-fluoro-phenyl ester] the value was 0.5 nM; for `CN(C(=O)Oc1ccc(F)cc1F)[C@@H]1CN(C(=O)C2CCN(c3ccc(C#N)cn3)CC2)C[C@H]1c1ccc(Cl)cc1` [Example 208, [(3S,4R)-4-(4-Chloro-phenyl)-1-(5′-cyano-3,4,5,6-tetrahydro-2H-[1,2′]bipyridinyl-4-carbonyl)-pyrrolidin-3-yl]-methyl-carbamic acid 2,4-difluoro-phenyl ester], 0.4 nM. On the same count and under the same terms, the same measure for `CN(C(=O)Oc1ccc(F)cc1)[C@@H]1CN(C(=O)C2CCN(c3cncc(C#N)n3)CC2)C[C@H]1c1ccc(Cl)cc1` [Example 187, {(3S,4R)-4-(4-Chloro-phenyl)-1-[1-(6-cyano-pyrazin-2-yl)-piperidine-4-carbonyl]-pyrrolidin-3-yl}-methyl-carbamic acid 4-fluoro-phenyl ester]: 2.6 nM; for `CN(C(=O)Oc1ccc(F)cc1)[C@@H]1CN(C(=O)C2CCN(C(=O)C3CCOCC3)CC2)C[C@H]1c1ccc(Cl)c(Cl)c1` [Example 275, {(3S,4R)-4-(3,4-Dichloro-phenyl)-1-[1-(tetrahydro-pyran-4-carbonyl)-piperidine-4-carbonyl]-pyrrolidin-3-yl}-methyl-carbamic acid 4-fluoro-phenyl ester]: 0.9 nM. With `CN(C(=O)Oc1ccc(F)cc1)[C@@H]1CN(C(=O)C2CCN(C(=O)C3CC3(F)F)CC2)C[C@H]1c1ccc(Cl)c(Cl)c1` (stereo partly drawn) [Example 274, {(3S,4R)-4-(3,4-Dichloro-phenyl)-1-[1-(2,2-difluoro-cyclopropanecarbonyl)-piperidine-4-carbonyl]-pyrrolidin-3-yl}-methyl-carbamic acid 4-fluoro-phenyl ester], the Ki is 0.9 nM.

In the case of `CN(C(=O)Oc1ccc(F)cc1)[C@@H]1CN(C(=O)C2CCN(C(=O)C3CCC(=O)NC3)CC2)C[C@H]1c1ccc(Cl)c(Cl)c1` (stereo partly drawn) [Example 281, {(3S,4R)-4-(3,4-Dichloro-phenyl)-1-[1-(6-oxo-piperidine-3-carbonyl)-piperidine-4-carbonyl]-pyrrolidin-3-yl}-methyl-carbamic acid 4-fluoro-phenyl ester], the Ki was found to be 0.3 nM.

Turning to `CN(C(=O)Oc1ccc(F)cc1)[C@@H]1CN(C(=O)C2CCN(c3ccc(O)cn3)CC2)C[C@H]1c1ccc(Cl)cc1` [Example 320, [(3S,4R)-4-(4-Chloro-phenyl)-1-(5′-hydroxy-3,4,5,6-tetrahydro-2H-[1,2′]bipyridinyl-4-carbonyl)-pyrrolidin-3-yl]-methyl-carbamic acid 4-fluoro-phenyl ester], the inhibitory constant (Ki) was 6.7 nM. Still for that read-out and setting: the same measure for `CC(C)COC(=O)N(C)[C@@H]1CN(C(=O)C2CCN(C(=O)C3(C)CC3)CC2)C[C@H]1c1ccc(Cl)cc1` [Example 141, {(3S,4R)-4-(4-Chloro-phenyl)-1-[1-(1-methyl-cyclopropanecarbonyl)-piperidine-4-carbonyl]-pyrrolidin-3-yl}-methyl-carbamic acid isobutyl ester]: 13.5 nM. The same measure, in the same setting: the same measure for `CC(=O)N1CCC(C(=O)N2C[C@@H](N(C)C(=O)Oc3ccc(F)cc3)[C@H](c3ccc(F)cc3)C2)CC1` [Example 285, [(3S,4R)-1-(1-Acetyl-piperidine-4-carbonyl)-4-(4-fluoro-phenyl)-pyrrolidin-3-yl]-methyl-carbamic acid 4-fluoro-phenyl ester]: 19.1 nM; for `CN(C(=O)Oc1ccc(F)cc1)[C@@H]1CN(C(=O)C2CCN(c3ccc(Cl)nn3)CC2)C[C@H]1c1ccc(Cl)cc1` [Example 110, {(3S,4R)-4-(4-Chloro-phenyl)-1-[1-(6-chloro-pyridazin-3-yl)-piperidine-4-carbonyl]-pyrrolidin-3-yl}-methyl-carbamic acid 4-fluoro-phenyl ester]: 0.3 nM; for `CN(C(=O)Oc1ccc(F)cc1)[C@@H]1CN(C(=O)C2CCN(C(=O)C3CCC3)CC2)C[C@H]1c1ccc(Cl)c(Cl)c1` [Example 265, [(3S,4R)-1-(1-Cyclobutanecarbonyl-piperidine-4-carbonyl)-4-(3,4-dichloro-phenyl)-pyrrolidin-3-yl]-methyl-carbamic acid 4-fluoro-phenyl ester]: 0.6 nM. The same measure, in the same setting: the same measure for `CN(C(=O)Oc1ccc(F)cc1)[C@@H]1CN(C(=O)C2CCN(c3ccc(Cl)cn3)CC2)C[C@H]1c1ccc(Cl)c(Cl)c1` [Example 308, [(3S,4R)-1-(5′-Chloro-3,4,5,6-tetrahydro-2H-[1,2′]bipyridinyl-4-carbonyl)-4-(3,4-dichloro-phenyl)-pyrrolidin-3-yl]-methyl-carbamic acid 4-fluoro-phenyl ester]: 0.2 nM; for `CN(C(=O)Oc1ccc(F)cc1)[C@@H]1CN(C(=O)C2CCN(C3CCOCC3)C2)C[C@H]1c1ccc(Cl)cc1` (stereo partly drawn) [Example 179, {(3S,4R)-4-(4-Chloro-phenyl)-1-[1-(tetrahydro-pyran-4-yl)-pyrrolidine-3-carbonyl]-pyrrolidin-3-yl}-methyl-carbamic acid 4-fluoro-phenyl ester]: 56.6 nM; for `CN(C(=O)Oc1ccc(F)cc1)[C@@H]1CN(C(=O)C2CCNCC2)C[C@H]1c1ccc(Cl)cc1` [Example 135, [(3S,4R)-4-(4-Chloro-phenyl)-1-(piperidine-4-carbonyl)-pyrrolidin-3-yl]-methyl-carbamic acid 4-fluoro-phenyl ester]: 40.3 nM.

As for `CN(C(=O)OC1CC(F)(F)C1(F)F)[C@@H]1CN(C(=O)C2CCN(c3ccc(C#N)cn3)CC2)C[C@H]1c1ccc(Cl)cc1` (stereo partly drawn) [Example 176, [(3S,4R)-4-(4-Chloro-phenyl)-1-(5′-cyano-3,4,5,6-tetrahydro-2H-[1,2′]bipyridinyl-4-carbonyl)-pyrrolidin-3-yl]-methyl-carbamic acid 2,2,3,3-tetrafluorocyclobutyl ester], the Ki turned out to be 4.6 nM. As for `CC(C)N1CC(C(=O)N2CCC(C(=O)N3C[C@@H](N(C)C(=O)Oc4ccc(F)cc4)[C@H](c4ccc(Cl)cc4)C3)CC2)CCC1=O` (stereo partly drawn) [Example 264, {(3S,4R)-4-(4-Chloro-phenyl)-1-[1-(1-isopropyl-6-oxo-piperidine-3-carbonyl)-piperidine-4-carbonyl]-pyrrolidin-3-yl}-methyl-carbamic acid 4-fluoro-phenyl ester], the Ki is 8.8 nM. Same read-out and setting: for `CN(C(=O)Oc1ccc(F)cc1)[C@@H]1CN(C(=O)C2CCN(C(=O)C3CC3(F)F)CC2)C[C@H]1c1ccc(Cl)cc1` (stereo partly drawn) [Example 256, {(3S,4R)-4-(4-Chloro-phenyl)-1-[1-(2,2-difluoro-cyclopropanecarbonyl)-piperidine-4-carbonyl]-pyrrolidin-3-yl}-methyl-carbamic acid 4-fluoro-phenyl ester] the value was 2.6 nM.

Still in this test, the particulars now being: hNK-3 receptor affinity; membranes from HEK293 cells transiently expressing recombinant human NK3 receptor; [3H]SR142801; Cheng-Prussoff; read-out: Data Ki.
With `CN(C(=O)OC1(C)CCCC1)[C@@H]1CN(C(=O)C2CCN(c3ccc(C#N)cn3)CC2)C[C@H]1c1ccc(Cl)cc1` [Example 243, [(3S,4R)-4-(4-Chloro-phenyl)-1-(5′-cyano-3,4,5,6-tetrahydro-2H-[1,2′]bipyridinyl-4-carbonyl)-pyrrolidin-3-yl]-methyl-carbamic acid 1-methyl-cyclopentyl ester], the inhibition constant (Ki) is 47.2 nM. Still for that read-out and setting: the same measure for `CN(C(=O)OC1CCCCC1)[C@@H]1CN(C(=O)C2CCN(c3ccc(C#N)cn3)CC2)C[C@H]1c1ccc(Cl)cc1` [Example 143, [(3S,4R)-4-(4-Chloro-phenyl)-1-(5′-cyano-3,4,5,6-tetrahydro-2H-[1,2′]bipyridinyl-4-carbonyl)-pyrrolidin-3-yl]-methyl-carbamic acid cyclohexyl ester]: 3.2 nM. The same measure, in the same setting: for `CC(OC(=O)N(C)[C@@H]1CN(C(=O)C2CCN(c3ccc(C#N)cn3)CC2)C[C@H]1c1ccc(Cl)cc1)C(F)(F)F` (stereo partly drawn) [Example 166, [(3S,4R)-4-(4-Chloro-phenyl)-1-(5′-cyano-3,4,5,6-tetrahydro-2H-[1,2′]bipyridinyl-4-carbonyl)-pyrrolidin-3-yl]-methyl-carbamic acid 2,2,2-trifluoro-1-methyl-ethyl ester] the value was 36.4 nM.

For the origin of these results see patent US9226916B2, “Pyrrolidine derivatives” (HOFFMANN-LA ROCHE INC., priority 2009, dated 2016).
